According to patent US7615642B2, “Therapeutic compounds” (priority 2006, dated 2009):
In brackets after ≈: the same amount, converted by molar mass.

Legend:
[1] = molecular target: T1, Human CB1 receptor (Homo sapiens, UniProt P21554); test: hCB1 receptor binding (3H-CP55,940 displacement)
T1 construct: purchased Receptor Biology
Description: Human CB1 receptor from Receptor Biology (hCB1) or human CB2 receptor from BioSignal (hCB2) membranes are thawed at 37° C., passed 3 times through a 25-gauge blunt-end needle, diluted in the cannabinoid binding buffer (50 mM Tris, 2.5 mM EDTA, 5 mM MgCl2, and 0.5 mg/mL BSA fatty acid free, pH 7.4) and aliquots containing the appropriate amount of protein are distributed into 96-well plates. The IC50 of the compounds of the invention at hCB1 and hCB2 are evaluated from 10-point dose-response curves done with ^3H-CP55,940 at 20000 to 25000 dpm per well (0.17-0.21 nM) in a final volume of 300 μl. The total and non-specific binding are determined in the absence and presence of 0.2 μM of HU210 respectively. The plates are vortexed and incubated for 60 minutes at room temperature, filtered through Unifilters GF/B (presoaked in 0.1% polyethyleneimine) with the Tomtec or Packard harvester using 3 mL of wash buffer (50 mM Tris, 5 mM MgCl2, 0.5 mg BSA pH 7.0). The filters are dried for 1 hour at 55° C. The radioactivity (cpm) is counted in a TopCount (Packard) after adding 65 μl/well of MS-20 scintillation liquid.
Based on the above assays, the dissociation constant (Ki) for a particular compound of the invention towards a particular receptor is determined using the following equation: Ki=IC50/(1+[rad]/Kd),
Wherein IC50 is the concentration of the compound of the invention at which 50% displacement has been observed;
[rad] is a standard or reference radioactive ligand concentration at that moment; and
Kd is the dissociation constant of the radioactive ligand towards the particular receptor.

[2] = molecular target: T1, Human CB1 receptor; test: hCB1 GTPγS binding; format: biochemical; conditions: human CB1 membranes, GTPg35S binding
Description: Human CB1 receptor from Receptor Biology (hCB1) or human CB2 receptor membranes (BioSignal) are thawed at 37° C., passed 3 times through a 25-gauge blunt-end needle and diluted in the GTPγS binding buffer (50 mM Hepes, 20 mM NaOH, 100 mM […], 1 mM EDTA, 5 mM MgCl2, pH 7.4, 0.1% BSA). The EC50 and Emax of the compounds of the invention are evaluated from 10-point dose-response curves done in […] with the appropriate amount of membrane protein and 100000-130000 dpm of GTPg^35S per well (0.11-0.14 nM). The basal and maximal stimulated binding is determined in absence and presence of 1 μM (hCB2) or 10 μM (hCB1) Win 55,212-2 respectively. The membranes are pre-incubated for 5 minutes with 56.25 μM (hCB2) or 112.5 μM (hCB1) GDP prior to distribution in plates (15 μM (hCB2) or 30 μM (hCB1) GDP final). The plates are vortexed and incubated for 60 minutes at room temperature, filtered on Unifilters GF/B (presoaked in water) with the Tomtec or Packard harvester using 3 ml of wash buffer (50 mM Tris, 5 mM MgCl2, 50 mM NaCl, pH 7.0). The filters are dried for 1 hour at 55° C. The radioactivity (cpm) is counted in a TopCount (Packard) after adding 65 μl/well of MS-20 scintillation liquid. Antagonist reversal studies are done in the same way except that (a) an agonist dose-response curve is done in the presence of a constant concentration of antagonist, or (b) an antagonist dose-response curve is done in the presence of a constant concentration of agonist.

[3] = Solubility

T1 sequence (P21554 whole entry): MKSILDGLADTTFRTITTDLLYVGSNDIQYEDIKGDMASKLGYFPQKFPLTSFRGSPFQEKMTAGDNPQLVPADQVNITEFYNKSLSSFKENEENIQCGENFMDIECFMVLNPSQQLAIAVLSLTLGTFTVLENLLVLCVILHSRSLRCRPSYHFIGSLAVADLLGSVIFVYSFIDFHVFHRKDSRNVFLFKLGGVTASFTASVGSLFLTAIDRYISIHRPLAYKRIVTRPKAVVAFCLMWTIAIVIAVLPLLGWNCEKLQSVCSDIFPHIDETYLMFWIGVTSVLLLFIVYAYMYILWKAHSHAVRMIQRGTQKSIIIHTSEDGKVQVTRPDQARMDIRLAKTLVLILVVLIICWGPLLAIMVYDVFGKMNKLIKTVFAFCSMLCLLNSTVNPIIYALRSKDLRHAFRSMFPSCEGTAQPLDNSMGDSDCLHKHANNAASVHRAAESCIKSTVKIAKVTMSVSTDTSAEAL

| Structure (SMILES) | Ki [1] [nM] | EC50 [2] [nM] | solubility [3] [µM] |
| --- | --- | --- | --- |
| CC(C)(C)c1nc2cc(S(=O)(=O)n3cc(C(=O)NC4CC4)cn3)ccc2n1CC1CCC(F)(F)CC1 [1-({2-tert-Butyl-1-[(4,4-difluorocyclohexyl)methyl]-1H-benzimidazol-5-yl}sulfonyl)-N-cyclopropyl-1H-pyrazole-4-carboxamide] | 0.88 | 0.58 | 6.16 (≈ 3.2 µg/mL) |
| CC(C)NC(=O)c1cnn(S(=O)(=O)c2ccc3c(c2)nc(C(C)(C)C)n3CC2CCC(F)(F)CC2)c1 [1-({2-tert-Butyl-1-[(4,4-difluorocyclohexyl)methyl]-1H-benzimidazol-5-yl}sulfonyl)-N-isopropyl-1H-pyrazole-4-carboxamide] | 1.82 | 3.41 | 0.26 (≈ 0.136 µg/mL) |
| CNC(=O)c1cnn(S(=O)(=O)c2ccc3c(c2)nc(C(C)(C)C)n3CC2CCC(F)(F)CC2)c1 [1-({2-tert-Butyl-1-[(4,4-difluorocyclohexyl)methyl]-1H-benzimidazol-5-yl}sulfonyl)-N-methyl-1H-pyrazole-4-carboxamide] | 1.61 | 1.21 | 2.52 (≈ 1.24 µg/mL) |
| CCNC(=O)c1ccn(S(=O)(=O)c2ccc3c(c2)nc(C(C)(F)F)n3CC2CCOCC2)c1 [1-{[2-(1,1-Difluoroethyl)-1-(tetrahydro-2H-pyran-4-ylmethyl)-1H-benzimidazol-5-yl]sulfonyl}-N-ethyl-1H-pyrrole-3-carboxamide] | 88 |  | 7.45 (≈ 3.58 µg/mL) |
| CC(C)(C)c1nc2cc(S(=O)(=O)n3ccc(N)n3)ccc2n1CC1CCOCC1 [1-{[2-tert-Butyl-1-(tetrahydro-2H-pyran-4-ylmethyl)-1H-benzimidazol-5-yl]sulfonyl}-1H-pyrazol-3-amine] | 252 |  | 43 (≈ 18 µg/mL) |
| CC(C)(C)c1nc2cc(S(=O)(=O)n3ccc(C(=O)NC4CC4)c3)ccc2n1CC1CCOCC1 [1-{[2-tert-Butyl-1-(tetrahydro-2H-pyran-4-ylmethyl)-1H-benzimidazol-5-yl]sulfonyl}-N-cyclopropyl-1H-pyrrole-3-carboxamide] | 5.68 | 10.5 | 5.64 (≈ 2.73 µg/mL) |
| CCNC(=O)c1cnn(S(=O)(=O)c2ccc3c(c2)nc(C(C)(C)C)n3CC2CCOCC2)c1 [1-{[2-tert-Butyl-1-(tetrahydro-2H-pyran-4-ylmethyl)-1H-benzimidazol-5-yl]sulfonyl}-N-ethyl-1H-pyrazole-4-carboxamide] | 14.6 | 57.2 | 337 (≈ 160 µg/mL) |
| CNC(=O)C1CCN(S(=O)(=O)c2ccc3c(c2)nc(C(C)(C)C)n3CC2CCOCC2)C1 (stereo not drawn) [1-{[2-tert-Butyl-1-(tetrahydro-2H-pyran-4-ylmethyl)-1H-benzimidazol-5-yl]sulfonyl}-N-methylpyrrolidine-3-carboxamide] | 833 |  | 2600 (≈ 1200 µg/mL) |
| CCNC(=O)c1ccn(S(=O)(=O)c2ccc3c(c2)nc(C(C)(C)C)n3CC2CCOCC2)c1 [1-{[2-tert-butyl-1-(tetrahydro-2H-pyran-4-ylmethyl)-1H-benzimidazol-5-yl]sulfonyl}-N-ethyl-1H-pyrrole-3-carboxamide] | 24.2 | 84.2 | 28 (≈ 13.2 µg/mL) |
| CC(C)(C)c1nc2cc(S(=O)(=O)N3CCOCC3)ccc2n1CC1CCOCC1 [2-tert-Butyl-5-(morpholin-4-ylsulfonyl)-1-(tetrahydro-2H-pyran-4-ylmethyl)-1H-benzimidazole] | 1530 |  | 128 (≈ 54.1 µg/mL) |
| CC(C)(C)c1nc2cc(S(=O)(=O)N3CCCC(c4ccccc4)C3)ccc2n1CC1CCOCC1 (stereo not drawn) [2-tert-Butyl-5-[(3-phenylpiperidin-1-yl)sulfonyl]-1-(tetrahydro-2H-pyran-4-ylmethyl)-1H-benzimidazole] | 278 |  | 0.79 (≈ 0.392 µg/mL) |
| CC(C)(C)c1nc2cc(S(=O)(=O)N3CCC(c4ccccc4)C3)ccc2n1CC1CCOCC1 (stereo not drawn) [2-tert-Butyl-5-[(3-phenylpyrrolidin-1-yl)sulfonyl]-1-(tetrahydro-2H-pyran-4-ylmethyl)-1H-benzimidazole] | 110 |  | 7.29 (≈ 3.51 µg/mL) |
| CC(C)(C)c1nc2cc(S(=O)(=O)N3CCOC(C(=O)NC4CC4)C3)ccc2n1CC1CCC(F)(F)CC1 (stereo not drawn) [4-({2-tert-Butyl-1-[(4,4-difluorocyclohexyl)methyl]-1H-benzimidazol-5-yl}sulfonyl)-N-cyclopropylmorpholine-2-carboxamide] | 11.3 | 10.4 | 42.5 (≈ 22.9 µg/mL) |
| CCNC(=O)[C@@H]1CN(S(=O)(=O)c2ccc3c(c2)nc(C(C)(C)C)n3CC2CCC(F)(F)CC2)CCO1 [(2S)-4-({2-tert-butyl-1-[(4,4-difluorocyclohexyl)methyl]-1H-benzimidazol-5-yl}sulfonyl)-N-ethylmorpholine-2-carboxamide] | 18 | 43.8 | 43.4 (≈ 22.8 µg/mL) |
| CC(C)(C)c1nc2cc(S(=O)(=O)N3CCC[C@H](C(=O)NC4CC4)C3)ccc2n1CC1CCC(F)(F)CC1 [(3S)-1-({2-tert-Butyl-1-[(4,4-difluorocyclohexyl)methyl]-1H-benzimidazol-5-yl}sulfonyl)-N-cyclopropylpiperidine-3-carboxamide] | 2.05 | 1.71 | 29.4 (≈ 15.8 µg/mL) |
| CCCNC(=O)[C@H]1CCCN(S(=O)(=O)c2ccc3c(c2)nc(C(C)(C)C)n3CC2CCC(F)(F)CC2)C1 [(3S)-1-({2-tert-Butyl-1-[(4,4-difluorocyclohexyl)methyl]-1H-benzimidazol-5-yl}sulfonyl)-N-propylpiperidine-3-carboxamide] | 2.03 | 1.69 | 16.8 (≈ 9.04 µg/mL) |
| CC(F)(F)c1nc2cc(S(=O)(=O)n3ccc(C(=O)NC4CC4)c3)ccc2n1CC1CCOCC1 [N-Cyclopropyl-1-{[2-(1,1-difluoroethyl)-1-(tetrahydro-2H-pyran-4-ylmethyl)-1H-benzimidazol-5-yl]sulfonyl}-1H-pyrrole-3-carboxamide] | 19.1 | 17.8 | 6.2 (≈ 3.05 µg/mL) |
